Test results published in article PMC10687071 (The Journal of Biological Chemistry, 2023).
Changes are numbered by the printed parent chain.

What was measured:
[1] = molecular target: T1, V80G mutant EAG1 channels (Mus musculus, UniProt Q60603, V80G); test: TEVC recording, imipramine inhibition, V80G mutant; format: cell-based; details: V80G mutant EAG1 channel, +50 mV
T1 construct: expressed in transfected cells; host or cells: Xenopus laevis oocytes injected with cRNA
T1 sequence (Q60603 1-989 V80G): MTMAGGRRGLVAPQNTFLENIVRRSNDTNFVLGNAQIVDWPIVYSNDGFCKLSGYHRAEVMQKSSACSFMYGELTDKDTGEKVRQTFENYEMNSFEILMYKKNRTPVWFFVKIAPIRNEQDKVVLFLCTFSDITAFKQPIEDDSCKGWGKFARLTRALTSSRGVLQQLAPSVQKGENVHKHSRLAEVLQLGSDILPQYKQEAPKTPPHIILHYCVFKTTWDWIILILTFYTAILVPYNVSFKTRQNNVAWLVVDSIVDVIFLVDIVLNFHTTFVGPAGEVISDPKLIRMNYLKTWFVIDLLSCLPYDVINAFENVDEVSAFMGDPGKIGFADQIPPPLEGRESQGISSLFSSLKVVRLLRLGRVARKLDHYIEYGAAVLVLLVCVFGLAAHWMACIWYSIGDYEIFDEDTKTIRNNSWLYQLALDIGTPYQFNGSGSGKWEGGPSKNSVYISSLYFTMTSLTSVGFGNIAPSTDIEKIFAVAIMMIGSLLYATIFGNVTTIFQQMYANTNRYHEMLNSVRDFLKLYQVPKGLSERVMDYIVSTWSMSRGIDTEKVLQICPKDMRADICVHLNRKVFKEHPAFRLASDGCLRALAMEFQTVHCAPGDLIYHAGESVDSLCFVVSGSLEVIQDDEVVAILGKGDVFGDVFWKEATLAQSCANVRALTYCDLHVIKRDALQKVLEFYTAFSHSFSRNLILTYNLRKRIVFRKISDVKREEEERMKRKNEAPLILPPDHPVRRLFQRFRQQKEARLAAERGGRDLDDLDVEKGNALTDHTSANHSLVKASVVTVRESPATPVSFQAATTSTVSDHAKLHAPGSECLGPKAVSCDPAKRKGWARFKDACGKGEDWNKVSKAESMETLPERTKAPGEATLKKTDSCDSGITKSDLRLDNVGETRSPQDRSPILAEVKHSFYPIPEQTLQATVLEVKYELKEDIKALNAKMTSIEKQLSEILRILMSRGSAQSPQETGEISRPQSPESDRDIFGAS
Text: (§1) The cDNA encoding wild-type (WT) mouse EAG1 channels in pGH19 vector was kindly provided by G. Robertson (University of Wisconsin-Madison, Madison, WI). The mutant ΔPAS EAG1 channel in pGH19 with the deletion of the PAS domain residues 2 to 130 was generated by Bio Basic Inc and verified by DNA sequencing (Genewiz). Mutant EAG1 channels with single amino acid substitutions were generated by Genewiz and verified by DNA sequencing. cRNA was transcribed using the T7 mMessage mMachine kit (Thermo Fisher Scientific). Defolliculated Xenopus laevis oocytes were purchased from Ecocyte Bioscience or Xenopus1 and injected with the cRNA using a Nanoinject II oocyte injector (Drummond).
(§2) For EAG1 current recordings, oocytes were placed into a handmade chamber containing a bath solution for the current recording. The currents were recorded using a TEVC technique with OC-725C amplifier (Warner Instruments) and pClamp11 software (Molecular Devices). The signals were digitized using Digidata 1550 (Molecular Devices). Patch pipettes were pulled from borosilicate glass and had resistances of 0.7 to 1.5 MΩ. The recording (bath) solution contained 96 mM NaCl, 4 mM KCl, 0.1 mM CaCl2, 1.8 mM MgCl2, and 5 mM HEPES, pH 7.5. The pipette solution contained 3 M KCl. […]

[2] = molecular target: T2, D39G mutant EAG1 channels (Mus musculus, UniProt Q60603, D39G); test: TEVC recording, imipramine inhibition, D39G mutant; format: cell-based; details: D39G mutant EAG1 channel, +50 mV
T2 construct: expressed in transfected cells; host or cells: Xenopus laevis oocytes injected with cRNA
T2 sequence (Q60603 1-989 D39G): T1 sequence (Q60603 1-989 V80G) with D39G, G80V
Text: as §1, §2

IC50 [1]: 57.1 ± 3.1 µM | IC50 [2]: 79.6 ± 5.4 µM
Compound: CN(C)CCCN1c2ccccc2CCc2ccccc21 [imipramine]
